Test results from patent publication US20180265804A1 (priority 2015, published 2018).

Assays:
Escherichia coli [1] = format: cell-based
Salmonella Typhimurium [2] = format: cell-based
Clostridium perfringens [3] = format: cell-based; conditions: strain of avian origin, 10^6 cfu/ml, 37° C. for 24 hours, anaerobiosis
Escherichia coli [4] = format: cell-based; remark: listed apart in the source
Salmonella Typhimurium [5] = format: cell-based; remark: listed apart in the source
Clostridium perfringens [6] = format: cell-based; conditions: strain of avian origin
Solubility in water = format: physicochemical; conditions: for solubility: water, at 25° C.
Salmonella Enteritidis [7] = format: cell-based
Salmonella Enteritidis [8] = format: cell-based; remark: listed apart in the source

| SMILES | MIC (Escherichia coli [1]) [%] | MIC (Salmonella Typhimurium [2]) [%] | MIC (Clostridium perfringens [3]) [%] | MBC (Escherichia coli [4]) [%] | MBC (Salmonella Typhimurium [5]) [%] | MBC (Clostridium perfringens [6]) [%] | solubility (Solubility in water) [mg/mL] | MIC (Salmonella Enteritidis [7]) [%] | MBC (Salmonella Enteritidis [8]) [%] | melting point | Solubility in water (Solubility in water; result in words) |
| --- | --- | --- | --- | --- | --- | --- | --- | --- | --- | --- | --- |
| CCCCCCCCCCCC(=O)OC1CC(C)CCC1C(C)C (stereo not shown) [IB579, Menthol Laurate] | >10 | >10 | >10 | >10 | >10 | >10 |  |  |  |  |  |
| Cc1cc(O)c(C(C)C)cc1S(=O)(=O)[O-].[K+] [IB575, Thymol Sulfonate Potassium Salt] | 2.5 | 5 | 1.25 | 2.5 | 5 | 2.5 | ~190 |  |  |  |  |
| CCCCCCCCCCCC(=O)Oc1cc(C(C)C)ccc1C [IB536, Carvacrol Laurate] | >10 | >10 | >10 | >10 | >10 | >10 |  |  |  |  |  |
| Cc1cc(S(=O)(=O)O)c(C(C)C)cc1O [IB540, Carvacrol Sulfonic Acid] | 0.75 | 0.75 | 0.375 | 0.75 | 0.75 | 0.75 |  | 0.312 | 0.312 |  |  |
| CCCCCCCCCCCC(=O)Oc1cc(C)ccc1C(C)C [IB570, Thymol Laurate] | >10 | >10 | >10 | >10 | >10 | >10 |  |  |  |  |  |
| Cc1cc(S(=O)(=O)[O-])c(C(C)C)cc1O.[K+] [IB546, Carvacrol Sulfonate Potassium Salt] | 5 | 1.25 | 0.375 | 5 | 1.25 | 0.75 | ~250 | 1.25 | 1.25 | > 270 °C (dec.) |  |
| Cc1ccc(C(C)C)cc1O [Carvacrol, reference compound] | ≤0.093 | 0.375 | ≤0.093 | ≤0.093 | 0.375 | ≤0.093 |  |  |  |  | INSOLUBLE |
| Cc1ccc(C(C)C)c(O)c1 [Thymol, reference compound] | ≤0.093 | ≤0.093 | ≤0.093 | ≤0.093 | ≤0.093 | ≤0.093 |  |  |  |  |  |
| Cc1cc(O)c(C(C)C)cc1S(=O)(=O)O [IB574, Thymol Sulfonic Acid] | 0.75 | 0.375 | 0.375 | 0.75 | 0.375 | 0.375 |  | 0.625 | 0.625 |  |  |
| Cc1ccc(C(C)C)c(OC(=O)CCC(=O)Oc2cc(C)ccc2C(C)C)c1 [Succinate] | ≤0.093 | ≤0.093 | ≤0.093 | ≤0.093 | ≤0.093 | ≤0.093 |  |  |  |  |  |
